From ChEMBL document CHEMBL4184161, “Novel all-hydrocarbon stapled p110α[E545K] peptides as blockers of the oncogenic p110α[E545K]-IRS1 interaction” (Bioorg Med Chem Lett, 2017)
Active and inactive are the calls of the source. The rule behind the calls is not given here. Numbered stars: 1 amine (or outer) side, 2 acyl side, 3 side chain; on linkers, the order of the positions; unused ones are H or OH. Bridge positions count the residues as written; N and C are the ends. Square brackets hold non-standard residues; d marks the D form. Peptide text beside a SMILES is read from it. X1 = C[C@](CCCCCC=[*:3])(N[*:1])C(=O)[*:2]; X2 = C[C@@](CCCCC=[*:3])(N[*:1])C(=O)[*:2]; R8 = C=CCCCCCC[C@@](C)(N)C(=O)O; S5 = C=CCCC[C@](C)(N)C(=O)O

Legend:
[1] = target: RAC-alpha serine/threonine-protein kinase (Homo sapiens) (UniProt P31749); experiment: Inhibition of p110alpha[E545K]-IRS1 interaction-initiated Akt phosphorylation at Ser473 residue in DLD1 human colon cancer cells at 50 uM by Western blot analysis
Chain of RAC-alpha serine/threonine-protein kinase (Homo sapiens) (P31749 whole entry): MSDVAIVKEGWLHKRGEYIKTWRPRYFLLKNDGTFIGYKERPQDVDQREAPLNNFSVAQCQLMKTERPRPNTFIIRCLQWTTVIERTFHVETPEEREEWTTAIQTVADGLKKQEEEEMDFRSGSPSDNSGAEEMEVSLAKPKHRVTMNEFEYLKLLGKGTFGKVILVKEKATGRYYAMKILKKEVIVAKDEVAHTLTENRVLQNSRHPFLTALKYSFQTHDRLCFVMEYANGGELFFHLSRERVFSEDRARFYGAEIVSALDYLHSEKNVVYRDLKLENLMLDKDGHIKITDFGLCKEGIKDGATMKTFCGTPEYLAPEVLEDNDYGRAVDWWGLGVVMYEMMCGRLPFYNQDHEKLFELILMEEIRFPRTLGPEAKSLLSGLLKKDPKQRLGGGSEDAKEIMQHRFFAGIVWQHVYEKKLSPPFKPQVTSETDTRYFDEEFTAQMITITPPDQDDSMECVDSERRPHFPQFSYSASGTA

[2] = Proteolytic stability of the compound assessed as Streptomyces griseus pronase-mediated compound hydrolysis by RP-HPLC method; format: ADME

Row | inhibition [1] | Stability [2] | Structure (SMILES)
1 | Active | Stable | CC[C@H](C)[C@H](NC(=O)[C@H](CCC(=O)O)NC(=O)[C@H](CO)NC(C)=O)C(=O)N[C@H](C(=O)N[C@@H](CCCCN)C(=O)N[C@@H](CCC(N)=O)C(=O)N[C@@H](CCC(=O)O)C(=O)N[C@@H](CCCCN)C(=O)N[C@@]1(C)CCC/C=C/CCC[C@@](C)(C(=O)N[C@@H](Cc2cnc[nH]2)C(=O)N[C@@H](CCCNC(=N)N)C(=O)N[C@@H](Cc2cnc[nH]2)C(=O)N[C@@H](Cc2ccc(O)cc2)C(=O)N[C@@H](CS)C(N)=O)NC(=O)[C@H](Cc2c[nH]c3ccccc23)NC(=O)[C@H](CC(C)C)NC(=O)[C@H](Cc2ccccc2)NC1=O)[C@@H](C)O (Ac-SEITKQEK[S5]FLW[S5]HRHYC-NH2; staple (E) 9-13)
2 |  | Stable | CC[C@H](C)[C@H](NC(=O)[C@H](CCC(=O)O)NC(=O)[C@H](CO)NC(C)=O)C(=O)N[C@H](C(=O)N[C@@H](CCCCN)C(=O)N[C@]1(C)CCCCCCC=CCCC[C@@](C)(C(=O)N[C@@H](Cc2cnc[nH]2)C(=O)N[C@@H](CCCNC(=N)N)C(=O)N[C@@H](Cc2cnc[nH]2)C(=O)N[C@@H](Cc2ccc(O)cc2)C(=O)N[C@@H](CS)C(N)=O)NC(=O)[C@H](Cc2c[nH]c3ccccc23)NC(=O)[C@H](CC(C)C)NC(=O)[C@H](Cc2ccccc2)NC(=O)[C@H](CC(=O)O)NC(=O)[C@H](CCCCN)NC(=O)[C@H](CCC(=O)O)NC1=O)[C@@H](C)O (Ac-SEITK[R8]EKDFLW[S5]HRHYC-NH2; staple 6-13)

Continued, molecule first:

Row | Structure (SMILES) | inhibition [1] | Stability [2]
3 | CC[C@H](C)[C@H](NC(=O)[C@H](CCC(=O)O)NC(=O)[C@H](CO)NC(C)=O)C(=O)N[C@H](C(=O)N[C@@H](CCCCN)C(=O)N[C@@H](CCC(N)=O)C(=O)N[C@@H](CCC(=O)O)C(=O)N[C@@H](CCCCN)C(=O)N[C@]1(C)CCCCCC=CCCCC[C@@](C)(C(=O)N[C@@H](Cc2ccc(O)cc2)C(=O)N[C@@H](CS)C(N)=O)NC(=O)[C@H](CCCNC(=N)N)NC(=O)[C@H](Cc2cnc[nH]2)NC(=O)[C@H](CO)NC(=O)[C@H](Cc2c[nH]c3ccccc23)NC(=O)[C@H](CC(C)C)NC(=O)[C@H](Cc2ccccc2)NC1=O)[C@@H](C)O (Ac-SEITKQEK[X1]FLWSHR[X2]YC-NH2; staple 9-16) |  | Stable
4 | CC[C@H](C)[C@H](NC(=O)[C@H](CCC(=O)O)NC(C)=O)C(=O)N[C@H](C(=O)N[C@@H](CCCCN)C(=O)N[C@]1(C)CCCCCCC=CCCC[C@@](C)(C(=O)N[C@@H](Cc2cnc[nH]2)C(=O)N[C@@H](CCCNC(=N)N)C(N)=O)NC(=O)[C@H](Cc2c[nH]c3ccccc23)NC(=O)[C@H](CC(C)C)NC(=O)[C@H](Cc2ccccc2)NC(=O)[C@H](CC(=O)O)NC(=O)[C@H](CCCCN)NC(=O)[C@H](CCC(=O)O)NC1=O)[C@@H](C)O (stereo in doubt; form 1) | Active | 
5 | CC[C@H](C)[C@H](NC(=O)[C@H](CCC(=O)O)NC(C)=O)C(=O)N[C@H](C(=O)N[C@@H](CCCCN)C(=O)N[C@]1(C)CCCCCCC=CCCC[C@@](C)(C(=O)N[C@@H](Cc2cnc[nH]2)C(=O)N[C@@H](CCCNC(=N)N)C(N)=O)NC(=O)[C@H](Cc2c[nH]c3ccccc23)NC(=O)[C@H](CC(C)C)NC(=O)[C@H](Cc2ccccc2)NC(=O)[C@H](CC(=O)O)NC(=O)[C@H](CCCCN)NC(=O)[C@H](CCC(=O)O)NC1=O)[C@@H](C)O (stereo in doubt; form 2) [listing 1 of 2 here] |  | Stable
6 | CC[C@H](C)[C@H](NC(=O)[C@H](CCC(=O)O)NC(C)=O)C(=O)N[C@H](C(=O)N[C@@H](CCCCN)C(=O)N[C@]1(C)CCCCCCC=CCCC[C@@](C)(C(=O)N[C@@H](Cc2cnc[nH]2)C(=O)N[C@@H](CCCNC(=N)N)C(N)=O)NC(=O)[C@H](Cc2c[nH]c3ccccc23)NC(=O)[C@H](CC(C)C)NC(=O)[C@H](Cc2ccccc2)NC(=O)[C@H](CC(=O)O)NC(=O)[C@H](CCCCN)NC(=O)[C@H](CCC(=O)O)NC1=O)[C@@H](C)O (stereo in doubt; form 2) [listing 2 of 2 here] | Active | 
